Assay results taken from patent US20100173890A1, “Compounds, Process for their Preparation, Intermediates, Pharmaceutical Compositions and their use in the Treatment of 5-HT6 Mediated Disorders such as Alzheimer's Disease, Cognitive Disorders, Cognitive Impairment Associated with Schizophrenia, Obesity and Parkinson's Disease” (AstraZeneca AB, priority 2005, published 2010).

Molecular target: T1, Rat Striatal 5-HT6 Receptors (Rattus norvegicus, UniProt P31388)
T1 construct: Striatal tissue from adult rats (Sprague-Dawley, 320-370 g, B & K Sweden) were dissected out, weighed and homogenized; from tissue; host or cells: rat striatum (Sprague-Dawley) membranes
Test: [125I]SB258585 binding to rat striatal 5-HT6 receptors
Settings: competition with 0.5-1 nM [125I]SB258585, rat striatal membranes
Description: Method for [125I]SB258585 Binding to Rat Striatal 5-HT6 Receptors
[^125I]SB258585 (1) with specific radioactivity 2000 Ci/mmol was purchased from Amersham Biosciences Europe GmbH, Freiburg, Germany. Other chemicals were is purchased from commercial sources and were of analytical grade.
Striatal tissue from adult rats (Sprague-Dawley, 320-370 g, B & K Sweden) were dissected out, weighed and homogenized in buffer containing 50 mM Tris-HCl, 4 mM MgCl2, 1 mM EDTA, 10 μM pargyline and protease inhibitor (Complete, Roche Diagnostics) pH 7.4 using an Ultra-Turrax T8 (IKA Labortechnik, Germany). The tissue homogenate was centrifuged at 48 000×g for 10 min and the pellet was resuspended and recentrifuged as above. […]
Saturation binding studies were carried out in duplicate with 1-3 mg w.w. per tube in 0.5 ml buffer (50 mM Tris, 4 mM MgCl2, 100 mM NaCl, 1 mM EDTA, 5 mM ascorbate and 10 μM pargyline at pH 7.4), 0.2 nM [^125I]SB258585 and unlabelled SB258585 to give a final concentration range of 0.23-20 nM (12 conc.). Non-specific binding was determined in the presence of 10 μM methiothepin. […] The radioactivity was determined in a Packard Tri-Carb 2900TR liquid scintillation counter: Data were analyzed by non-linear regression analyses using PRISM 4.00 (GraphPad Software Inc., San Diego, Calif.). […]

T1 sequence (P31388 whole entry): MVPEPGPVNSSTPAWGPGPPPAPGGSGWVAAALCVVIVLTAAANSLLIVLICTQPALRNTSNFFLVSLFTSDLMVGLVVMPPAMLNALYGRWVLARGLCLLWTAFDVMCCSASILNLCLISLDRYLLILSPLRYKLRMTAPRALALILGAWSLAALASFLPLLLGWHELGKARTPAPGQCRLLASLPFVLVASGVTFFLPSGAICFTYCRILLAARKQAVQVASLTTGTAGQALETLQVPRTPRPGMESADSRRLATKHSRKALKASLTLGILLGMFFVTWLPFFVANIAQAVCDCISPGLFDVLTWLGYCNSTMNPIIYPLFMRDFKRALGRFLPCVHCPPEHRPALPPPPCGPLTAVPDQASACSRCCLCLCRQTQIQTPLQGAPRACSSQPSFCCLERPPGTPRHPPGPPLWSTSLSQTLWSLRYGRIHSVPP

O=S(=O)(Nc1cccc(Cl)c1)c1ccc2c(c1)CNCCO2 [Example 3, N-(3-Chlorophenyl)-2,3,4,5-tetrahydro-1,4-benzoxazepine-7-sulfonamide]
Ki: 82 ± 28 nM
